Assay results as given in ChEMBL document CHEMBL4622929 (Bioorg Med Chem Lett, 2020).

Legend:
Adenosine receptor A1 [1] = target: T1, Adenosine receptor A1 (Rattus norvegicus, UniProt P25099); assay: Displacement of [3H]DPCPX from Sprague-Dawley rat whole brain membrane A1AR by scintillation counting analysis; format: cell membranes
T1 sequence (P25099 whole entry): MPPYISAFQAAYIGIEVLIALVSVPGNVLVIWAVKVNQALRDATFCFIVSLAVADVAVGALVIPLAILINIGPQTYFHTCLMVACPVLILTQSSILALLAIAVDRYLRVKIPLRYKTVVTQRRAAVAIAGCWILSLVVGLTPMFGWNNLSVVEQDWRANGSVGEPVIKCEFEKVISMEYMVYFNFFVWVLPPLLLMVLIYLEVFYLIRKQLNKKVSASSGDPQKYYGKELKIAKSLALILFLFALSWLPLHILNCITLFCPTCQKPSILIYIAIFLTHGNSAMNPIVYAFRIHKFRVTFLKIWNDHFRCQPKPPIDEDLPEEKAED

[2] = target: Adenosine receptor A2a (Rattus norvegicus) (UniProt P30543); assay: Displacement of [3H]NECA from Sprague-Dawley rat striatal membrane A2A adenosine receptor at 100 uM by scintillation counting analysis relative to control; format: cell membranes; conditions: Striatum
Adenosine receptor A2a = Adenosine receptor A2a (Rattus norvegicus, UniProt P30543); assay: Displacement of [3H]NECA from Sprague-Dawley rat striatal membrane A2A adenosine receptor by scintillation counting analysis; format: cell membranes, Striatum
[3] = target: T2, Adenosine receptor A1 (Rattus norvegicus) (UniProt P25099); assay: Displacement of [3H]DPCPX from Sprague-Dawley rat whole brain membrane A1AR at 100 uM by scintillation counting analysis relative to control; format: cell membranes
T2 sequence (whole entry): T1 sequence (P25099 whole entry)

Adenosine receptor A1 [4] = target: T1, Adenosine receptor A1; assay: Displacement of [3H]DPCPX from Sprague-Dawley rat whole brain membrane A1AR in presence of GTP by radioligand binding assay; format: cell membranes
[5] = target: T2, Adenosine receptor A1 (Rattus norvegicus); assay: Ratio of Ki for displacement of [3H]DPCPX from Sprague-Dawley rat whole brain membrane A1AR in presence of GTP to Ki for displacement of [3H]DPCPX from Sprague-Dawley rat whole brain A1AR; format: cell membranes
Rattus norvegicus = organism: Rattus norvegicus; assay: Selectivity index, ratio of Ki for Sprague-Dawley rat striatal membrane A2 adenosine receptor to Ki for Sprague-Dawley rat whole brain A1 adenosine receptor

Chain of Adenosine receptor A2a (P30543 whole entry): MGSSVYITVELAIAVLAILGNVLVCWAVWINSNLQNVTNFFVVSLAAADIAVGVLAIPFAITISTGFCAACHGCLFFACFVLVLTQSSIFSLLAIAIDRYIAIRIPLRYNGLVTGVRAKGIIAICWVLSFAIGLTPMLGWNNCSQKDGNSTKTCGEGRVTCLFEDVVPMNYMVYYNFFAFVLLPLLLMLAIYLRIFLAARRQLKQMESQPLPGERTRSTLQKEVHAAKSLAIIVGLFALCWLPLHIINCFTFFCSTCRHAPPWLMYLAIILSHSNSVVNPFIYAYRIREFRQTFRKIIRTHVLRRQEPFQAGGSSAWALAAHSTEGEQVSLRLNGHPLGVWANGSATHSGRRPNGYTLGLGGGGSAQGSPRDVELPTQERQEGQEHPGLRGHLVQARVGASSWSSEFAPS
Chain of Adenosine receptor A2a (Rattus norvegicus) (P30543 whole entry): as above

O=c1oc2ccccc2nc1-c1ccccc1
Ki (Adenosine receptor A1 [1]): 17.3 µM | inhibition [2]: 91% | Ki (Adenosine receptor A2a): > 100 µM

Oc1nc(-c2cccs2)nc2ccccc12
Ki (Adenosine receptor A1 [1]): > 100 µM | inhibition [2]: 30% | inhibition [3]: 39% | Ki (Adenosine receptor A2a): > 100 µM

O=c1oc(-c2ccc(Cl)cc2)nc2ccccc12
Ki (Adenosine receptor A1 [1]): > 100 µM | inhibition [2]: 81% | inhibition [3]: 86% | Ki (Adenosine receptor A2a): > 100 µM

O=c1[nH]c(-c2ccc(Cl)cc2)nc2ccccc12
Ki (Adenosine receptor A1 [1]): > 100 µM | inhibition [2]: 82% | inhibition [3]: 54% | Ki (Adenosine receptor A2a): > 100 µM

Cc1ccc(-c2nc3ccccc3c(=O)[nH]2)cc1
Ki (Adenosine receptor A1 [1]): 2.5 µM | inhibition [2]: 55% | Ki (Adenosine receptor A1 [4]): 2.95 µM | Ratio Ki [5]: 1.18 | Ki (Adenosine receptor A2a): > 100 µM

Oc1nc(-c2ccccc2)cc2ccccc12
inhibition [2]: 100% | inhibition [3]: 100%

COc1ccc(-c2nc3ccccc3c(=O)[nH]2)cc1
Ki (Adenosine receptor A1 [1]): > 100 µM | Ki (Adenosine receptor A2a): > 100 µM

O=c1oc2ccccc2cc1-c1ccccc1
Ki (Adenosine receptor A1 [1]): > 100 µM | inhibition [2]: 77% | inhibition [3]: 51% | Ki (Adenosine receptor A2a): > 100 µM

O=c1oc(-c2ccccc2)nc2ccccc12
Ki (Adenosine receptor A1 [1]): 6.38 µM | inhibition [2]: 49% | Ki (Adenosine receptor A1 [4]): 6.92 µM | Ratio Ki [5]: 1.09 | Ki (Adenosine receptor A2a): > 100 µM

O=c1[nH]c(-c2ccccc2)cc2ccccc12
Ki (Adenosine receptor A1 [1]): > 100 µM | Ki (Adenosine receptor A2a): > 100 µM

Cc1ccc(-c2nc3ccccc3c(=O)o2)cc1
Ki (Adenosine receptor A1 [1]): > 100 µM | inhibition [2]: 77% | inhibition [3]: 84% | Ki (Adenosine receptor A2a): > 100 µM

O=c1oc(-c2cccs2)nc2ccccc12
Ki (Adenosine receptor A1 [1]): 32.4 µM | inhibition [2]: 59% | Ki (Adenosine receptor A2a): > 100 µM

O=c1oc(-c2ccc(Br)cc2)nc2ccccc12
Ki (Adenosine receptor A1 [1]): > 100 µM | inhibition [2]: 92% | inhibition [3]: 95% | Ki (Adenosine receptor A2a): > 100 µM

O=c1oc(-c2ccc(F)cc2)nc2ccccc12
Ki (Adenosine receptor A1 [1]): > 100 µM | inhibition [2]: 70% | inhibition [3]: 100% | Ki (Adenosine receptor A2a): > 100 µM

O=C1OC(c2ccccc2)Nc2ccccc21 (centres undefined)
Ki (Adenosine receptor A1 [1]): 5.06 µM | inhibition [2]: 69% | Ki (Adenosine receptor A1 [4]): 5.72 µM | Ratio Ki [5]: 1.12 | Ki (Adenosine receptor A2a): > 100 µM

OC[C@H]1O[C@@H](n2cnc3c(NC4CCCC4)ncnc32)[C@H](O)[C@@H]1O [N6-CYCLOPENTYLADENOSINE]
Ki (Adenosine receptor A2a): 0.557 µM

COc1ccc(-c2nc(O)c3ccccc3n2)cc1OC
Ki (Adenosine receptor A1 [1]): > 100 µM | inhibition [3]: 67% | Ki (Adenosine receptor A2a): 2.81 µM

CCOc1ccc(-c2nc3ccccc3c(=O)o2)cc1
Ki (Adenosine receptor A1 [1]): > 100 µM | inhibition [2]: 77% | inhibition [3]: 99% | Ki (Adenosine receptor A2a): > 100 µM

O=c1[nH]c(-c2ccco2)nc2ccccc12
Ki (Adenosine receptor A1 [1]): 4.62 µM | Ratio Ki (Rattus norvegicus): 1.76 | Ki (Adenosine receptor A1 [4]): 5.89 µM | Ratio Ki [5]: 1.23 | Ki (Adenosine receptor A2a): 8.11 µM

COc1ccc(-c2nc3ccccc3c(=O)o2)cc1
Ki (Adenosine receptor A1 [1]): > 100 µM | inhibition [2]: 37% | inhibition [3]: 54% | Ki (Adenosine receptor A2a): > 100 µM

O=c1oc(-c2ccco2)nc2ccccc12
Ki (Adenosine receptor A1 [1]): > 100 µM | inhibition [2]: 66% | inhibition [3]: 42% | Ki (Adenosine receptor A2a): > 100 µM

O=c1[nH]c(-c2ccc(Br)cc2)nc2ccccc12
Ki (Adenosine receptor A1 [1]): > 100 µM | inhibition [2]: 84% | inhibition [3]: 98% | Ki (Adenosine receptor A2a): > 100 µM

Oc1nc(-c2ccc(F)cc2)nc2ccccc12
Ki (Adenosine receptor A1 [1]): > 100 µM | inhibition [2]: 62% | inhibition [3]: 50% | Ki (Adenosine receptor A2a): > 100 µM

COc1ccc(-c2nc(O)c3ccccc3n2)cc1
inhibition [2]: 79% | inhibition [3]: 44%

O=c1oc(/C=C/c2ccccc2)nc2ccccc12
Ki (Adenosine receptor A1 [1]): > 100 µM | inhibition [2]: 85% | inhibition [3]: 56% | Ki (Adenosine receptor A2a): > 100 µM

O=c1[nH]c(/C=C/c2ccccc2)nc2ccccc12
Ki (Adenosine receptor A1 [1]): > 100 µM | inhibition [2]: 56% | inhibition [3]: 100% | Ki (Adenosine receptor A2a): > 100 µM
